The source of these data is US20250195502A1, “APPLICATION OF TETRACYCLIC COMPOUND IN TREATMENT OF TUMORS” (SHANGHAI SHIJIANG BIOTECHNOLOGY CO., LTD, priority 2022, published 2025).

SMILES strings stand for the structures. Read-outs that look alike come from different tables or passages of the source.

What is called IC50 is the point on the concentration scale where inhibition reaches its midpoint.

Type in all cases: cell-based
The test system of test [1] is Con-NCI-H82 cell (NCI-H82 transfected with empty virus vector). In words: Cell viability assay (Promega CellTiter-Glo), inhibitory effect on Con-NCI-H82 cell. The following applies: Homo sapiens. On the procedure: (§1) The role of expression level of NNMT gene and DNMT1 in the sensitivity of NCI-H82 cell to the compounds prepared in the Examples of the present invention was determined
(§2) The expression of NNMT protein in NCI-H82 cell was overexpressed by inserting the NNMT gene into NCI-H82 cell using a viral vector, and the NNMT protein-overexpressing NCI-H82 cell (ov-NNMT NCI-H82 cell) was obtained. The expression of DNMT1 in NCI-H82 cell was knocked down transfecting (the by shRNA nucleotide sequence of shRNA was […] TTTTTG (SEQ ID No: 2)) using a viral vector, and the NCI-H82 cell with low expression of DNMT1 protein (sh-DNMT1 NCI-H82 cell) was obtained. The control NCI-H82 cell (Con-NCI-H82 cell) was obtained by transfecting NCI-H82 cell with empty virus vector without carrying NNMT gene and shRNA. The expressing content of NNMT protein and DNMT1 protein in the Con-NCI-H82 cell, the expressing content of NNMT protein in the ov-NNMT NCI-H82 cell, and the expressing content of DNMT1 protein in the sh-DNMT1 NCI-H82 cell were detected using Western Blot assay (as shown in FIG. 15 and FIG. 16), it could be seen from FIG. 15 and FIG. 16 that the NNMT protein was overexpressed in the ov-NNMT NCI-H82 cell and the expression of DNMT1 protein was knocked down (i.e, low expression) in the sh-DNMT1 NCI-H82 cell compared with the expression level of NNMT protein and DNMT protein in the Con-NCI-H82 cell.
(In general: In ATP-based viability assays light output follows the ATP content of the culture.)

Test [2] concerns ov-NNMT NCI-H82 cell (NNMT protein-overexpressing NCI-H82). In words: Cell viability assay (Promega CellTiter-Glo), inhibitory effect on ov-NNMT NCI-H82 cell. The following applies: Homo sapiens. On the procedure:
as §1, §2

Test [3] relates to sh-DNMT1 NCI-H82 cell (DNMT1 knocked down NCI-H82). In words: Cell viability assay (Promega CellTiter-Glo), inhibitory effect on sh-DNMT1 NCI-H82 cell. Conditions: Homo sapiens, NCI-H82 with DNMT1 knocked down by shRNA. On the procedure:
as §1, §2

The subject of test [4] is MDA-MB-453 (breast cancer cell). In words: Cell viability assay (Promega CellTiter-Glo), inhibitory effect on MDA-MB-453. Conditions: Homo sapiens, 72 h, 3 days of culture. As for the experimental part: (§3) The inhibitory effect of the compounds prepared in the Examples of the present invention on various tumor cell lines was detected using cell viability assay reagent.
(§4) Cell viability was detected using the Promega CellTiter-Glo kit, cell viability was determined by directly measuring intracellular ATP content. In the experiment, the ICso value of the compounds prepared in the Examples of the present invention on various tumor cell lines was detected.
(§5) Each tumor cell was cultured in relevant medium. After cell passage, the gradient diluted compounds prepared in the Examples of the present invention was added. After 3 days of culture, the relevant IC50 (50% inhibiting concentration) was measured. The name, source and culture conditions of each tumor cell line were as follows:
Cell line MDA-MB-453 (ATCC, No. HTB-131) was cultured in 10% fetal bovine serum-containing Leibovitz's L-15 medium (+P/S).

Test [5] deals with NCI-H82 (human small cell lung cancer cell). In words: Cell viability assay (Promega CellTiter-Glo), inhibitory effect on NCI-H82. Conditions: 72 h, 3 days of culture. As for the experimental part:
as §3, §4, §5
Cell line NCI-H82 (ATCC, No. HTB-175) was cultured in 10% fetal bovine serum-containing RPMI1640 medium (+P/S).

Test [6] has as its system SF126 (human glioblastoma multiforme cell). Nature of the test: Cell viability assay (Promega CellTiter-Glo), inhibitory effect on SF126. The following applies: 72 h, SF-126, 3 days of culture, Table 3, read-out: inhibitory effect on SF-126 (IC50). As for the experimental part: as §3, §4, §5
Cell line SF126 (JCRB, No. IFO50286) was cultured in 10% fetal bovine serum-containing EMEM medium (+P/S).
(§6) The inhibitory effect of the compounds prepared in the Examples of the present invention on various brain tumor cell lines was detected using cell viability assay reagent.
(§7) Cell viability was detected using the Promega CellTiter-Glo kit, cell viability was determined by directly measuring intracellular ATP content. In the experiment, the IC50 value of the compounds prepared in the Examples of the present invention on various brain tumor cell lines was detected.

The subject of test [7] is SW48 (human colon adenocarcinoma cell). Nature of the test: Cell viability assay (Promega CellTiter-Glo), inhibitory effect on SW48. Conditions: 72 h, 3 days of culture. As for the experimental part:
as §3, §4, §5
Cell line SW48 (ATCC, No. CCL-231) was cultured in 10% fetal bovine serum-containing Leibovitz's L-15 medium (+P/S).

Test [8] relates to CFPAC-1 (human pancreatic cancer cell). Nature of the test: Cell viability assay (Promega CellTiter-Glo), inhibitory effect on CFPAC-1. The following applies: 72 h, 3 days of culture. As for the experimental part: as §3, §4, §5
Cell line CFPAC-1 (ATCC, No. CRL-1918) was cultured in 10% fetal bovine serum-containing IMDM medium (+P/S).

Test [9] has as its system 786-O (clear cell renal cell adenocarcinoma cell). In words: Cell viability assay (Promega CellTiter-Glo), inhibitory effect on 786-O. Conditions: Homo sapiens, 786-0, 72 h, 3 days of culture. As for the experimental part: as §3, §4, §5
Cell line 786-0 (ATCC, No. CRL-1932) was cultured in 10% fetal bovine serum-containing RPMI1640 medium (+P/S).

Test [10] deals with GB-1 (human brain glioblastoma cell). In words: Cell viability assay (Promega CellTiter-Glo), inhibitory effect on GB-1. Conditions: 72 h, 3 days of culture, Table 3, read-out: inhibitory effect on GB-1 (IC50). On the procedure: as §3, §4, §5
Cell line GB-1 (JCRB, No. IFO50489) was cultured in 10% fetal bovine serum-containing DMEM medium (+P/S).
as §6, §7

Test [11] has as its system G-401 (human renal carcinoma Wilms cell). In words: Cell viability assay (Promega CellTiter-Glo), inhibitory effect on G-401. The following applies: 72 h, 3 days of culture. As for the experimental part: as §3, §4, §5
Cell line G-401 (ATCC, No. CRL-1441) was cultured in 10% fetal bovine serum-containing McCoy's 5a medium (+P/S).

The mark [12] stands for this setting: NCI-H82 transfected with empty virus vector (control), CellTiter-Glo, read-out: inhibitory effect on Con-NCI-H82 (IC50).
Where [13] appears, read: NCI-H82, read-out: inhibitory effect on Con-NCI-H82 (IC50).

Regarding `CCCCCCCCCCOc1c(OC)ccc2cc3[n+](cc12)CCc1cc2c(cc1-3)OCO2` [compound AB31716], the IC50 in [1] (setting [12]) is 70 nM; in [2], 380 nM; in test [3], 350 nM.

For `CCCCCCCCCCCCOc1c(OC)ccc2cc3[n+](cc12)CCc1cc2c(cc1-3)OCO2` [compound AB31717], the half-inhibitory concentration (IC50) in test [1] (setting [12]) came out at 110 nM; in test [2], 250 nM; in test [3] it was 360 nM.

Regarding `CCCCC(=O)Oc1c(OC)ccc2cc3[n+](cc12)CCc1cc2c(cc1-3)OCO2` [compound AB31723], the 50% inhibitory concentration (IC50) came out at 3450 nM in [4]; 3940 nM in test [5]; 19300 nM in test [6]; 2560 nM in [7]; 3940 nM in test [1] (setting [12]); 22600 nM in [8]. The half-maximal inhibitory concentration (IC50) in test [2] was 8280 nM; in test [9], 21500 nM; in [10], greater than 50000 nM; in test [3], 8080 nM; in test [11], 5310 nM.

For `CCc1c2[n+](cc3c(OC)c(OC)ccc13)CCc1cc3c(cc1-2)OCO3` [compound AB31755], the IC50 in test [1] (setting [12]) was 2360 nM; in [2], 4820 nM; in [3] it was 7680 nM.

For `CCCc1c2[n+](cc3c(OC)c(OC)ccc13)CCc1cc3c(cc1-2)OCO3` [compound AB31756], the IC50 in test [1] (setting [12]) came to 1010 nM; in test [2] it was 2380 nM; in test [3], 4360 nM.

As to `CCCCCCCCc1c2[n+](cc3c(OC)c(OC)ccc13)CCc1cc3c(cc1-2)OCO3` [compound AB31761], the concentration for half-maximal inhibition (IC50) was 270 nM in test [1] (setting [12]), 740 nM in test [2] and 980 nM in [3].

As for `CCCCCCCCCCc1c2[n+](cc3c(OC)c(OC)ccc13)CCc1cc3c(cc1-2)OCO3` [compound AB31762], the IC50 in test [1] (setting [12]) was found to be 130 nM; in test [2] it was 320 nM; in [3] it was 490 nM.

Regarding `CCCCCCCCCCCCc1c2[n+](cc3c(OC)c(OC)ccc13)CCc1cc3c(cc1-2)OCO3` [compound AB31763], the IC50 in test [1] (setting [12]) worked out at 80 nM; in test [2], 310 nM; in test [3], 420 nM.

For `CCCCCCCCCCCC(=O)Oc1c(OC)ccc2cc3[n+](cc12)CCc1cc2c(cc1-3)OCO2` [compound AB31766], the IC50 was found to be 1250 nM in test [4]; 2470 nM in test [5]; 12900 nM in test [6]; 1210 nM in [7]; 2470 nM in test [1] (setting [12]); 15200 nM in test [8]. In addition, the IC50 came to 4950 nM in test [2]; 13000 nM in test [9]; 9120 nM in test [10]; 4840 nM in [3]; 2890 nM in test [11].

As for `CCCCCCCCCCCCc1c2[n+](cc3c(OCCCCCCCCCC)c(OC)ccc13)CCc1cc3c(cc1-2)OCO3` [compound AB31795], the values for the half-inhibitory concentration (IC50) in test [1] (setting [12]), in test [2] and in [3] were 240 nM, 680 nM and 880 nM, respectively.

In the case of `CCCCCCCCCCCCc1c2[n+](cc3c(OCCCCCCCC)c(OC)ccc13)CCc1cc3c(cc1-2)OCO3` [compound AB31796], the IC50 in [1] (setting [12]) was found to be 270 nM; in test [2], 640 nM; in test [3], 760 nM.

As to `CCCCCCCCCCCCc1c2[n+](cc3c(OCCCCCC)c(OC)ccc13)CCc1cc3c(cc1-2)OCO3` [compound AB31797], the IC50 in [1] (setting [12]) stood at 120 nM; in test [2], 540 nM; in [3], 480 nM.

Take `CCCCCCCCCCCCCCc1c2[n+](cc3c(OC)c(OC)ccc13)CCc1cc3c(cc1-2)OCO3` [compound AB31800]: the half-inhibitory concentration (IC50) in test [1] (setting [12]) was 220 nM; in [2], 650 nM; in [3], 580 nM.

For the compound `COc1ccc2cc3[n+](cc2c1OC)CCc1cc2c(cc1-3)OCCO2` [compound AB31811], the IC50 in test [1] (setting [12]) worked out at 3120 nM; in [2], 7340 nM; in test [3], 12400 nM.

Turning to `COc1ccc2cc3[n+](cc2c1OCCCCl)CCc1cc2c(cc1-3)OCO2` [compound AB35483], the results for the IC50 in test [1] (setting [13]), in test [2] and in test [3] were 1260 nM, 2880 nM and 5320 nM, respectively.

`CCCOc1c(OC)ccc2cc3[n+](cc12)CCc1cc2c(cc1-3)OCO2` [compound AB35511]: the half-maximal inhibitory concentration (IC50) in test [1] (setting [12]) stood at 610 nM; in test [2], 1380 nM; in test [3] it was 2560 nM.

As to `COc1ccc2cc3[n+](cc2c1OCc1ccc(-c2ccccc2)cc1)CCc1cc2c(cc1-3)OCO2` [compound AB35532], the IC50 amounted to 340 nM in [1] (setting [12]), 960 nM in test [2] and 2560 nM in test [3].

As to `COc1ccc2cc3[n+](cc2c1OCCBr)CCc1cc2c(cc1-3)OCO2` [compound AB35595], the IC50 in test [1] (setting [12]) was 680 nM; in test [2], 1540 nM; in test [3], 3150 nM.

Take `COc1ccc2cc3[n+](cc2c1OCCCl)CCc1cc2c(cc1-3)OCO2` [compound AB36404]: the IC50 in [1] (setting [13]) is 1060 nM; in test [2], 2540 nM; in [3], 4860 nM.

Regarding `CCOc1c(OC)ccc2cc3[n+](cc12)CCc1cc2c(cc1-3)OCO2` [compound AB36412], the figures for the IC50 in test [1] (setting [12]), in test [2] and in [3] were 1170 nM, 2580 nM and 4690 nM, respectively.

Regarding `COc1c(OCCCCl)ccc2cc3[n+](cc12)CCc1cc2c(cc1-3)OCO2` [compound AB36425], the IC50 in [1] (setting [13]) was determined as 850 nM; in test [2] it was 1920 nM; in [3], 3880 nM.

For `COc1ccc2cc3[n+](cc2c1OCCF)CCc1cc2c(cc1-3)OCO2` [compound AB36484], the IC50 in [1] (setting [12]) came to 1840 nM; in test [2] it was 3850 nM; in test [3], 8320 nM.

On to `[2H]C([2H])([2H])Oc1c(OC)ccc2cc3[n+](c(C4CCCC4)c12)CCc1cc2c(cc1-3)OCO2.[Br-]` [compound AB36508], for which the half-maximal inhibitory concentration (IC50) in [1] (setting [12]) was found to be 560 nM; in test [2], 1340 nM; in [3], 2820 nM.
